Assay results taken from US11566007B2, “Ras inhibitors” (Revolution Medicines, Inc., priority 2019, dated 2023).

Key:
Assay type in all cases: biochemical
K-Ras G12C = K-Ras G12C (Homo sapiens (Human), UniProt P01116+P62937, G12C); experiment: Ras-Raf (BRAF RBD) disruption / FRET / MOA assay, KRAS G12C; conditions: KRAS G12C; Ras-Raf disruption/FRET/MOA assay; read-out: IC50* KRAS G12C FRET data
Method in brief: (§1)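 Ras:RAF disruption was scored as a fall in TR-FRET ratio relative to DMSO. Compound ranged in 3-fold steps over 10 points from 30 μM final; incubation ran 3 h at 25° C, detection antibodies a further 1.5 h. Reported as IC50.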

NRAS Q61K = NRAS Q61K (Homo sapiens (Human), UniProt P01111+P62937, Q61K); experiment: Ras-Raf (BRAF RBD) disruption / FRET / MOA assay, NRAS Q61K; conditions: NRAS Q61K; Ras-Raf disruption/FRET/MOA assay; read-out: IC50* NRAS Q61K FRET data
Method in brief: (§2)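 TR-FRET disruption of nucleotide-loaded Ras binding to BRAF RBD via compound-driven ternary complex with cyclophilin A. Compound as 10-point 3-fold series from 30 μM final, 3 h at 25° C, then anti-His Eu-W1024 (10 nM) and anti-GST allophycocyanin (50 nM) for 1.5 h. IC50 from decreased FRET ratio versus DMSO.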

K-Ras G13C = K-Ras G13C (Homo sapiens (Human), UniProt P01116+P62937, G13C); experiment: Ras-Raf (BRAF RBD) disruption / FRET / MOA assay, KRAS G13C; conditions: KRAS G13C; Ras-Raf disruption/FRET/MOA assay; read-out: IC50* KRAS G13C FRET data
Method in brief: as §1

NRAS WT = NRAS WT (Homo sapiens (Human), UniProt P01111+P62937); experiment: Ras-Raf (BRAF RBD) disruption / FRET / MOA assay, NRAS WT; conditions: read-out: IC50* NRAS WT FRET data
Method in brief: as §2

NRAS G12C = NRAS G12C (Homo sapiens (Human), UniProt P01111+P62937, G12C); experiment: Ras-Raf (BRAF RBD) disruption / FRET / MOA assay, NRAS G12C; conditions: read-out: IC50* NRAS G12C FRET data
Method in brief: as §1

KRAS G13D = KRAS G13D (Homo sapiens (Human), UniProt P01116+P62937, G13D); experiment: Ras-Raf (BRAF RBD) disruption / FRET / MOA assay, KRAS G13D; conditions: read-out: IC50* KRAS G13D FRET data
Method in brief: as §1

KRAS G12D = KRAS G12D (Homo sapiens (Human), UniProt P01116+P62937, G12D); experiment: Ras-Raf (BRAF RBD) disruption / FRET / MOA assay, KRAS G12D; conditions: Ras-Raf disruption/FRET/MOA assay; class symbols; read-out: KRAS G12D FRET data IC50
Method in brief: as §1

KRAS Q61H = KRAS Q61H (Homo sapiens (Human), UniProt P01116+P62937, Q61H); experiment: Ras-Raf (BRAF RBD) disruption / FRET / MOA assay, KRAS Q61H; conditions: Ras-Raf disruption/FRET/MOA assay; class symbols; read-out: KRAS Q61H FRET data IC50
Method in brief: as §2

KRAS G12V = KRAS G12V (Homo sapiens (Human), UniProt P01116+P62937, G12V); experiment: Ras-Raf (BRAF RBD) disruption / FRET / MOA assay, KRAS G12V; conditions: read-out: IC50* KRAS G12V FRET data
Method in brief: as §1

Chain of KRAS G13D (P01116-2 other isoform, or with tags, fused parts or gaps G13D): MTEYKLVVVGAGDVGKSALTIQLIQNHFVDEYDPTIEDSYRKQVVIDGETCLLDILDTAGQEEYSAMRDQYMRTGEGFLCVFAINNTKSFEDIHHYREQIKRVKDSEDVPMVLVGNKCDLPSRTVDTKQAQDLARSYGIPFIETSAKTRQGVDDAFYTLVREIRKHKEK
Chain of KRAS G13D (P62937 whole entry): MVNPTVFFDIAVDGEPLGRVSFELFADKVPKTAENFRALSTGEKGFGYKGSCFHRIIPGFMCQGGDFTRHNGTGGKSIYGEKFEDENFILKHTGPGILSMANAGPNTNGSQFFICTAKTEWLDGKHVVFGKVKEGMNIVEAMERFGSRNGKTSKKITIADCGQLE
Chain of KRAS Q61H (P01116-2 other isoform, or with tags, fused parts or gaps Q61H): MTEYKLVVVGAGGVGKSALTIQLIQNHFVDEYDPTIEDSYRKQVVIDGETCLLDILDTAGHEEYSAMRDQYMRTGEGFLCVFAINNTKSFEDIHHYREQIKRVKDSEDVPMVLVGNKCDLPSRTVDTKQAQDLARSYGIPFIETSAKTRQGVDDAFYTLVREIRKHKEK
Chain of KRAS Q61H (P62937 whole entry): as the sequence (P62937 whole entry) above
Chain of NRAS G12C (P01111 whole entry G12C): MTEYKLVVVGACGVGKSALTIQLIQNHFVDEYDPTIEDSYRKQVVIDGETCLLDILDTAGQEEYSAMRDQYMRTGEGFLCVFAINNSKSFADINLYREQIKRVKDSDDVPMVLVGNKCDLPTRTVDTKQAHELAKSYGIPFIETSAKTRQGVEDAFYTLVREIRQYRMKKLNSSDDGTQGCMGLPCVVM
Chain of NRAS G12C (P62937 whole entry): as the sequence (P62937 whole entry) above
Chain of KRAS G12D (P01116-2 other isoform, or with tags, fused parts or gaps G12D): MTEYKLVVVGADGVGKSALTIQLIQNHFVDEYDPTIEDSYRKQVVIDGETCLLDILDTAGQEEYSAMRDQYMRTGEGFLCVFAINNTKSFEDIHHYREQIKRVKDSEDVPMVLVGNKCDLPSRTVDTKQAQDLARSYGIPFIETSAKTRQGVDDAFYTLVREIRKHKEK
Chain of KRAS G12D (P62937 whole entry): as the sequence (P62937 whole entry) above
Chain of KRAS G12V (P01116-2 other isoform, or with tags, fused parts or gaps G12V): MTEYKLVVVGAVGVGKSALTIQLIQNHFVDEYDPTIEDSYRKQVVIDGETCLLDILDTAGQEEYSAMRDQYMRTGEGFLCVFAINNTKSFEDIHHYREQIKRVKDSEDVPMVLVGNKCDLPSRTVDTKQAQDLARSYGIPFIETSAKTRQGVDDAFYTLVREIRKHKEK
Chain of KRAS G12V (P62937 whole entry): as the sequence (P62937 whole entry) above
Chain of K-Ras G13C (P01116-2 other isoform, or with tags, fused parts or gaps G13C): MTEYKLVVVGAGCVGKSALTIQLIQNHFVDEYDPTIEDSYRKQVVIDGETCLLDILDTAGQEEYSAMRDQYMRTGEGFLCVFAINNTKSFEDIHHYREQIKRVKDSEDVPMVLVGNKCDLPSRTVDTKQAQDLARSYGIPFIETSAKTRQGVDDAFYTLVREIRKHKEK
Chain of K-Ras G13C (P62937 whole entry): as the sequence (P62937 whole entry) above
Chain of NRAS Q61K (P01111 whole entry Q61K): as the sequence (P01111 whole entry G12C) above, with C12G, Q61K counted along it
Chain of NRAS Q61K (P62937 whole entry): as the sequence (P62937 whole entry) above
Chain of NRAS WT (P01111 whole entry): as the sequence (P01111 whole entry G12C) above, with C12G counted along it
Chain of NRAS WT (P62937 whole entry): as the sequence (P62937 whole entry) above
Chain of K-Ras G12C (P01116-2 other isoform, or with tags, fused parts or gaps G12C): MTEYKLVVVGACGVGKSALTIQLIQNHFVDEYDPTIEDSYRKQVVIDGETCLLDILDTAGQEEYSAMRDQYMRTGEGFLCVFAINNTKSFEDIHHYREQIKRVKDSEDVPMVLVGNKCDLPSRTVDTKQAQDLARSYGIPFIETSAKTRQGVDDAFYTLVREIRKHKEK
Chain of K-Ras G12C (P62937 whole entry): as the sequence (P62937 whole entry) above

| SMILES | IC50 (K-Ras G12C) | IC50 (NRAS Q61K) | IC50 (K-Ras G13C) | IC50 (NRAS WT) | IC50 (NRAS G12C) | IC50 (KRAS G13D) | IC50 (KRAS G12D) | IC50 (KRAS Q61H) | IC50 (KRAS G12V) |
| --- | --- | --- | --- | --- | --- | --- | --- | --- | --- |
| C=CC(=O)N1CCOC2(CCN(C(=O)N(C)[C@H](C(=O)N[C@H]3Cc4cc(CF)cc(c4)-c4ccc5c(c4)c(c(-c4cccnc4[C@H](C)OC)n5CC(F)(F)F)CC(C)(C)COC(=O)[C@@H]4CCCN(N4)C3=O)C(C)C)CC2)C1 (atropisomer, axis not shown) [Example A605] | 100 to 1000 nM | 100 to 1000 nM | 10 to 100 nM | 10 to 100 nM | 100 to 1000 nM | 100 to 1000 nM | 100 to 1000 nM | 10 to 100 nM | 100 to 1000 nM |
| CCn1c(-c2cccnc2[C@H](C)OC)c2c3cc(ccc31)N1CCC[C@@H](C[C@H](NC(=O)[C@@H](COC3CN(C(=O)C#CC(C)(C)N(C)C)C3)C(C)C)C(=O)N3CCC[C@H](N3)C(=O)OCC(C)(C)C2)C1 (atropisomer, axis not shown) [Example A715, (2R)-2-(((1-(4-(dimethylamino)-4-methylpent-2-ynoyl)azetidin-3-yl)oxy)methyl)-N-((2^3S,6^3S,4S)-1^1-ethyl-1^2-(2-((S)-1-methoxyethyl)pyridin-3-yl)-10,10-dimethyl-5,7-dioxo-6^1,6^2,6^3,6^4,6^5,6^6-hexahydro-1^1H-8-oxa-1(5,3)-indola-6(1,3)-pyridazina-2(1,3)-piperidinacycloundecaphane-4-yl)-3-methylbutanamide] | 10 to 100 nM | > 10000 nM | > 10000 nM | > 10000 nM | 10 to 100 nM | > 10000 nM | > 10000 nM | > 10000 nM | > 10000 nM |
| C=CC(=O)N1CC[C@]2(CCN(C(=O)N(C)[C@H](C(=O)N[C@H]3Cc4nc(cs4)-c4ccc5c(c4)c(c(-c4cccnc4[C@H](C)OC)n5CC)CC(C)(C)COC(=O)[C@@H]4CCCN(N4)C3=O)C(C)C)C2)C1 (atropisomer, axis not shown) [Example A719] | 10 to 100 nM | 10 to 100 nM | 10 to 100 nM | 10 to 100 nM | 10 to 100 nM | 100 to 1000 nM | 100 to 1000 nM | 10 to 100 nM | 100 to 1000 nM |
| CCn1c(-c2cccnc2[C@H](C)OC)c2c3cc(ccc31)-c1csc(n1)C[C@H](NC(=O)[C@H](C(C)C)N(C)C(=O)N1CCC3(CC1)CN(C(=O)/C=C/CN(C)C)C3)C(=O)N1CCC[C@H](N1)C(=O)OCC(C)(C)C2 (atropisomer, axis not shown) [Example A650] | 10 to 100 nM | 10 to 100 nM | 10 to 100 nM | 100 to 1000 nM | 10 to 100 nM | 100 to 1000 nM | 100 to 1000 nM | 10 to 100 nM | 100 to 1000 nM |
| CO[C@@H](C)c1ncccc1-c1c2c3cc(ccc3n1CC(F)(F)F)-c1cccc(c1)C[C@H](NC(=O)[C@H](C(C)C)N(C)C(=O)N1CCC3(CC1)CN(C(=O)/C=C/CN(C)C)C3)C(=O)N1CCC[C@H](N1)C(=O)OCC(C)(C)C2 (atropisomer, axis not shown) [Example A555] | 100 to 1000 nM | 100 to 1000 nM | 10 to 100 nM | 100 to 1000 nM | 100 to 1000 nM | 100 to 1000 nM | 100 to 1000 nM | 100 to 1000 nM | 100 to 1000 nM |
| CCn1c(-c2cccnc2[C@H](C)OC)c2c3cc(ccc31)-c1csc(n1)C[C@H](NC(=O)[C@@H](F)COC1CN(C(=O)C#CC(C)(C)N(C)C)C1)C(=O)N1CCC[C@H](N1)C(=O)OCC(C)(C)C2 (atropisomer, axis not shown) [Example A626] | < 10 nM | 1000 to 10000 nM | 1000 to 10000 nM | 1000 to 10000 nM | < 10 nM | 1000 to 10000 nM | 1000 to 10000 nM | 100 to 1000 nM | 1000 to 10000 nM |
| C=CC(=O)N1C[C@@H](C)N(C(=O)N(C)[C@H](C(=O)N[C@H]2Cc3nc(cs3)-c3ccc4c(c3)c(c(-c3cccnc3[C@H](C)OC)n4CC)CC(C)(C)COC(=O)[C@@H]3CCCN(N3)C2=O)C(C)C)[C@@H](C)C1 (atropisomer, axis not shown) [Example A387] | 10 to 100 nM | 10 to 100 nM | 100 to 1000 nM | 10 to 100 nM | 10 to 100 nM | 100 to 1000 nM | 100 to 1000 nM | 10 to 100 nM | 100 to 1000 nM |
